Ends that are not written are not given here.
How the values were obtained:
[1] = tested on: SARS-COV-2 Indian variant (δ type) (B.1.617.2)
[2] = tested on: SARS-COV-2 Omicron (sublineage BA.1) variant (B.1.1.529/BA.1)
[3] = tested on: SARS-COV-2 UK variant (B.1.1.7)
[4] = tested on: SARS-COV-2 Brazilian variant (P.1)
[5] = biological target: receptor binding domain (RBD) in the SARS-COV-2 Indian variant (δ type (B.1.617.2)) (Severe acute respiratory syndrome coronavirus 2, UniProt P0DTC2, L452R/T478K)
[6] = biological target: receptor binding domain (RBD) in the SARS-COV-2 Omicron (sublineage BA.1) variant (B.1.1.529/BA.1) (Severe acute respiratory syndrome coronavirus 2, UniProt P0DTC2, E484A/G339D/G446S/G496S/K417N/N440K/N501Y/Q493R/Q498R/S371L/S373P/S375F/S477N/T478K/Y505H)
[7] = biological target: receptor binding domain (RBD) in the SARS-COV-2 Brazilian variant (P.1) (Severe acute respiratory syndrome coronavirus 2, UniProt P0DTC2, E484K/K417T/N501Y)
[8] = biological target: receptor binding domain (RBD) in the SARS-COV-2 UK variant (B.1.1.7) (Severe acute respiratory syndrome coronavirus 2, UniProt P0DTC2, N501Y)
[9] = biological target: receptor binding domain (RBD) in the SARS-COV-2 Indian variant (κ type (B.1.617.1)) (Severe acute respiratory syndrome coronavirus 2, UniProt P0DTC2, E484Q/L452R)
[10] = biological target: receptor binding domain (RBD) in the SARS-COV-2 South African variant (B.1.351) (Severe acute respiratory syndrome coronavirus 2, UniProt P0DTC2, E484K/K417N/N501Y)

Sequence	IC50 [1] [nM]	IC50 [2] [nM]	IC50 [3] [nM]	also measured
DKLWILQKIYEIMVRLDEEGHGEASLMVSDLIYEFMKRD [Ce172]	0.53	0.038	0.0022	
DKEWILQKIYEIMRRLDEEGHAEASMRVSDLIYEFMKKD [Ce9]			13	IC50 [4]: 1200 nM
DKEWILQKIYEIMRRLDEEGHGEASLRVSDLIYEFMKKD [Ce41]			0.68	binding activity to the receptor binding domain (RBD) [5]: high binding activity; binding activity to the receptor binding domain (RBD) [6]: cannot maintain binding; binding activity to the receptor binding domain (RBD) [7]: high binding activity; binding activity to the receptor binding domain (RBD) [8]: high binding activity; dissociation from the RBD once bound [8]: does not dissociate at all; binding activity to the receptor binding domain (RBD) [9]: high binding activity; binding activity to the receptor binding domain (RBD) [10]: high binding activity
DKEWILYKIYEIMVRLDEEGHGEASLMVSDLIYEFMKRD [Ce149]	0.15	1	0.0021	
DKEWILQKIYEIMRRLDEEGHGEASLRVSDLIYEFMKRD [Ce59]	16			

— US20240309059A1, “PEPTIDE HAVING ANTI-VIRAL ACTIVITY, ANTI-VIRAL AGENT COMPRISING SAID PEPTIDE, AND METHOD FOR PRODUCING SAID ANTI-VIRAL AGENT” (National University Corporation Tokyo Medical and Dental …, priority 2021, published 2024)
